Here are results for six compounds from ChEMBL document CHEMBL1201862, “PubChem BioAssay data set” (2004).

As usually defined, the IC50 is the midpoint of a concentration-inhibition curve. In general, EC50 refers to the concentration that produces a half-maximal response. The AC50 is the concentration giving half of the maximal activity seen. Usually CC50 stands for the concentration that lowers cell viability or growth by half.

For data set [1], the system named is MDA-MB-435. Nature of the data set: cells. Format: functional, cell-based. To be noted: Homo sapiens.
Data set [2] can be described thus: cells. Format: functional, cell-based. To be noted: PPC-1.
The target in data set [3] is Intestinal-type alkaline phosphatase (Homo sapiens, UniProt P09923). Briefly: human intestinal alkaline phosphatase activators, dose response, biochemical, luminescence, uHTS hits (AID 463120). The format is functional.
Data set [4] concerns the target Cytochrome P450 2C19 (Homo sapiens, UniProt P33261). Nature of the data set: Cytochrome panel assay with activity outcomes. Panel member name: p450-cyp2c19 Compounds with AC50 equal or less than 10 uM are considered active. The format is functional.
Data set [5] concerns the target T1, Cytochrome P450 1A2 (Homo sapiens, UniProt P05177).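 Further: PubChem cytochrome P450 panel assay, CYP1A2 panel member.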
T1 sequence (P05177 whole entry): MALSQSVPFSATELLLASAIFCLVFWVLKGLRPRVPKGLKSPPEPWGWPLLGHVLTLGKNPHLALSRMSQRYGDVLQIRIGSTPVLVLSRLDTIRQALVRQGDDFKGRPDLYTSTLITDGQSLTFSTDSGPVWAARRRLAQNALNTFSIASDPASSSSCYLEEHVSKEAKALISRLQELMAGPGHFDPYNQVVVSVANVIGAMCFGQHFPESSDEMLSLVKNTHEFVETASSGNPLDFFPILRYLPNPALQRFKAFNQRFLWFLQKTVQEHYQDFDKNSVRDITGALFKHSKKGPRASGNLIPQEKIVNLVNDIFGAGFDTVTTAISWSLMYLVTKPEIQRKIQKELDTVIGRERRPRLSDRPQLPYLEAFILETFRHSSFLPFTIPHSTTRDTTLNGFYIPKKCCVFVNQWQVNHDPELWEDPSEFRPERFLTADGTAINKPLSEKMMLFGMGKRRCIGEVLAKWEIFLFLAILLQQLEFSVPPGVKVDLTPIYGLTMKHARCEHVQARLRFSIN

Data set [6] has as its target Cytochrome P450 2D6 (Homo sapiens, UniProt P10635).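 Further: CYP2D6 member of a cytochrome P450 panel assay.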
Data set [7] deals with T2, G-protein coupled receptor 35 (Homo sapiens, UniProt Q9HC97). Briefly: SAR analysis of Agonists of the GPR35 Receptor using an Image-Based Assay - Set 4. [Related pubchem assays (depositor defined):AID2013, AID2026]. Format: functional.
Data set [8] addresses T3, Cannabinoid receptor 1 (Homo sapiens, UniProt P21554). Briefly: SAR analysis of agonists of the Cannabinoid Receptor 1 using an Image-Based Assay - Set 4. [Related pubchem assays (depositor defined):AID2013, AID2026]. Format: functional.
Data set [9] addresses T2, G-protein coupled receptor 35. Nature of the data set: SAR analysis of Antagonists of the GPR35 Receptor using an Image-Based Assay - Set 6. [Related pubchem assays (depositor defined):AID2013, AID2026]. Format: functional.
The target in data set [10] is T3, Cannabinoid receptor 1. Briefly: SAR analysis of antagonists of the Cannabinoid Receptor 1 using an Image-Based Assay - Set 4. [Related pubchem assays (depositor defined):AID2013, AID2026]. Format: functional.
For data set [11], the target named is G-protein coupled receptor 55 (Homo sapiens, UniProt Q9Y2T6). Nature of the data set: SAR Analysis of Selective Antagonists of GPR55 using an Image-Based Assay - Set 4. [Related pubchem assays (depositor defined):AID2013, AID2026]. The format is functional.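 Further: antagonism of response to 5 µM lysophosphatidylinositol agonist.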
Data set [12] has as its target T4, Cannabinoid receptor 2 (Homo sapiens, UniProt P34972). Nature of the data set: SAR analysis of antagonists of the Cannabinoid Receptor 2 using an Image-Based Assay - Set 3. [Related pubchem assays (depositor defined):AID2013, AID2026]. Format: functional.
Data set [13] concerns the target T4, Cannabinoid receptor 2. Briefly: SAR analysis of agonists of the Cannabinoid Receptor 2 using an Image-Based Assay - Set 3. [Related pubchem assays (depositor defined):AID2013, AID2026]. The format is functional.
In data set [14] the target is Voltage-dependent T-type calcium channel subunit alpha-1H (Homo sapiens, UniProt O95180). Nature of the data set: Cav3.2 T-type channel inhibitors, synthesized analogs, SAR follow-up, cell-based, synthetic library set 2, HEK293 HH8, Fluo-4 (AID 493023). The format is functional.
The target in data set [15] is Hexokinase (Trypanosoma brucei, UniProt Q38C41). Briefly: Confirmation assay for inhibitors of Trypanosoma brucei hexokinase 1-Analogue-first series. [Related pubchem assays (depositor defined):AID1430, AID1632, AID2516, AID2560, AID2579, AID2600, AID449725, AID492951]. Format: functional.
The nature of data set [16]: THP-1 cell cytotoxicity, dose response, cytotoxicity control for non-replicating M. tuberculosis project (AID 489025). The format is functional.
Data set [17] in a line: Vero E6 cell cytotoxicity, dose response, cytotoxicity control for non-replicating M. tuberculosis project, secondary assay (AID 492998). The format is functional, VeroE6. To be noted: Vero C1008.
Data set [18] can be described thus: cells. The format is functional.

Activity calls are given as the source filed them. Where only a bound is given, the exact number is not on record here.

T3 sequence (P21554 whole entry): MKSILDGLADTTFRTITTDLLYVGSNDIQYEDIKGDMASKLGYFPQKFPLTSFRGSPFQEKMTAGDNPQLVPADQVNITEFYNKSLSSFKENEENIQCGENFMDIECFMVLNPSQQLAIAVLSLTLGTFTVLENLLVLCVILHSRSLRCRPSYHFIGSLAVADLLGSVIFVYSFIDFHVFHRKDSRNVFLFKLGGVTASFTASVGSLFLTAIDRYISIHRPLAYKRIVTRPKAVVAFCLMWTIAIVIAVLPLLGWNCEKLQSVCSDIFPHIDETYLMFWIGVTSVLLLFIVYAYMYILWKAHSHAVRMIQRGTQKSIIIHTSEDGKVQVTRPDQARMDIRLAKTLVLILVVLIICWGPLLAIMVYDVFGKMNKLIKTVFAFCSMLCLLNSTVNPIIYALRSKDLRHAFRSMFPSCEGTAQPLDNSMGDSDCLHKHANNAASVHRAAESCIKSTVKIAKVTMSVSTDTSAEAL
T2 sequence (Q9HC97 whole entry): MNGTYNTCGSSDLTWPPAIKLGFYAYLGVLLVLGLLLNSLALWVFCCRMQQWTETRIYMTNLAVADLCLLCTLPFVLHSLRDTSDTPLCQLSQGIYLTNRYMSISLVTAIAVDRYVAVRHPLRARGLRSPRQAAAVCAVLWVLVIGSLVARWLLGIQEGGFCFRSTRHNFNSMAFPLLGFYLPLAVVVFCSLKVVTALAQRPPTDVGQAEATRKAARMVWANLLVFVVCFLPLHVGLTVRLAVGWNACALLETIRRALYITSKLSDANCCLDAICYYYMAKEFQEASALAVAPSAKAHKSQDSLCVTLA
T4 sequence (P34972 whole entry): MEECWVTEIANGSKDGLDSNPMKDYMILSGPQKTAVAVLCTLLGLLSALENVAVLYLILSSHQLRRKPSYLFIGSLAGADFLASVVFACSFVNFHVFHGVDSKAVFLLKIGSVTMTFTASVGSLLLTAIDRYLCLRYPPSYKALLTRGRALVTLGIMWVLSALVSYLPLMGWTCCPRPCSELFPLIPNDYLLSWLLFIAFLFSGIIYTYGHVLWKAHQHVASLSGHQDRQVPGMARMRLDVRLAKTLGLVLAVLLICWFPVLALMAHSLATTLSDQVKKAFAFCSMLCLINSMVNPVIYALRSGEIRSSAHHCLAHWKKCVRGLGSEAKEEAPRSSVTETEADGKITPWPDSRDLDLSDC
Chain of Cytochrome P450 2C19 (P33261 whole entry): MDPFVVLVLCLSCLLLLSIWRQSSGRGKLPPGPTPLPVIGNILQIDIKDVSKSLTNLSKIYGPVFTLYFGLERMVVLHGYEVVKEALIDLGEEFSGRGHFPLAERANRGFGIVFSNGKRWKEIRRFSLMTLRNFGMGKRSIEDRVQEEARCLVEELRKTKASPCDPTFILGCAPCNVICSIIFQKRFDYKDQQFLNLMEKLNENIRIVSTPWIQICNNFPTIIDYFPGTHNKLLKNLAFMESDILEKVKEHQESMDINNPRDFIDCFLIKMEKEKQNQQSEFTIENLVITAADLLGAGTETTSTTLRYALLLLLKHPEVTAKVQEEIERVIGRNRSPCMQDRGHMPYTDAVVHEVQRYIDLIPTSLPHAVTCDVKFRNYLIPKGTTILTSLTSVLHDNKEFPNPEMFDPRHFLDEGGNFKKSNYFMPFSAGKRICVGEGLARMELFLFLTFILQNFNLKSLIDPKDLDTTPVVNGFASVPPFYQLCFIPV
Chain of Voltage-dependent T-type calcium channel subunit alpha-1H (O95180 whole entry): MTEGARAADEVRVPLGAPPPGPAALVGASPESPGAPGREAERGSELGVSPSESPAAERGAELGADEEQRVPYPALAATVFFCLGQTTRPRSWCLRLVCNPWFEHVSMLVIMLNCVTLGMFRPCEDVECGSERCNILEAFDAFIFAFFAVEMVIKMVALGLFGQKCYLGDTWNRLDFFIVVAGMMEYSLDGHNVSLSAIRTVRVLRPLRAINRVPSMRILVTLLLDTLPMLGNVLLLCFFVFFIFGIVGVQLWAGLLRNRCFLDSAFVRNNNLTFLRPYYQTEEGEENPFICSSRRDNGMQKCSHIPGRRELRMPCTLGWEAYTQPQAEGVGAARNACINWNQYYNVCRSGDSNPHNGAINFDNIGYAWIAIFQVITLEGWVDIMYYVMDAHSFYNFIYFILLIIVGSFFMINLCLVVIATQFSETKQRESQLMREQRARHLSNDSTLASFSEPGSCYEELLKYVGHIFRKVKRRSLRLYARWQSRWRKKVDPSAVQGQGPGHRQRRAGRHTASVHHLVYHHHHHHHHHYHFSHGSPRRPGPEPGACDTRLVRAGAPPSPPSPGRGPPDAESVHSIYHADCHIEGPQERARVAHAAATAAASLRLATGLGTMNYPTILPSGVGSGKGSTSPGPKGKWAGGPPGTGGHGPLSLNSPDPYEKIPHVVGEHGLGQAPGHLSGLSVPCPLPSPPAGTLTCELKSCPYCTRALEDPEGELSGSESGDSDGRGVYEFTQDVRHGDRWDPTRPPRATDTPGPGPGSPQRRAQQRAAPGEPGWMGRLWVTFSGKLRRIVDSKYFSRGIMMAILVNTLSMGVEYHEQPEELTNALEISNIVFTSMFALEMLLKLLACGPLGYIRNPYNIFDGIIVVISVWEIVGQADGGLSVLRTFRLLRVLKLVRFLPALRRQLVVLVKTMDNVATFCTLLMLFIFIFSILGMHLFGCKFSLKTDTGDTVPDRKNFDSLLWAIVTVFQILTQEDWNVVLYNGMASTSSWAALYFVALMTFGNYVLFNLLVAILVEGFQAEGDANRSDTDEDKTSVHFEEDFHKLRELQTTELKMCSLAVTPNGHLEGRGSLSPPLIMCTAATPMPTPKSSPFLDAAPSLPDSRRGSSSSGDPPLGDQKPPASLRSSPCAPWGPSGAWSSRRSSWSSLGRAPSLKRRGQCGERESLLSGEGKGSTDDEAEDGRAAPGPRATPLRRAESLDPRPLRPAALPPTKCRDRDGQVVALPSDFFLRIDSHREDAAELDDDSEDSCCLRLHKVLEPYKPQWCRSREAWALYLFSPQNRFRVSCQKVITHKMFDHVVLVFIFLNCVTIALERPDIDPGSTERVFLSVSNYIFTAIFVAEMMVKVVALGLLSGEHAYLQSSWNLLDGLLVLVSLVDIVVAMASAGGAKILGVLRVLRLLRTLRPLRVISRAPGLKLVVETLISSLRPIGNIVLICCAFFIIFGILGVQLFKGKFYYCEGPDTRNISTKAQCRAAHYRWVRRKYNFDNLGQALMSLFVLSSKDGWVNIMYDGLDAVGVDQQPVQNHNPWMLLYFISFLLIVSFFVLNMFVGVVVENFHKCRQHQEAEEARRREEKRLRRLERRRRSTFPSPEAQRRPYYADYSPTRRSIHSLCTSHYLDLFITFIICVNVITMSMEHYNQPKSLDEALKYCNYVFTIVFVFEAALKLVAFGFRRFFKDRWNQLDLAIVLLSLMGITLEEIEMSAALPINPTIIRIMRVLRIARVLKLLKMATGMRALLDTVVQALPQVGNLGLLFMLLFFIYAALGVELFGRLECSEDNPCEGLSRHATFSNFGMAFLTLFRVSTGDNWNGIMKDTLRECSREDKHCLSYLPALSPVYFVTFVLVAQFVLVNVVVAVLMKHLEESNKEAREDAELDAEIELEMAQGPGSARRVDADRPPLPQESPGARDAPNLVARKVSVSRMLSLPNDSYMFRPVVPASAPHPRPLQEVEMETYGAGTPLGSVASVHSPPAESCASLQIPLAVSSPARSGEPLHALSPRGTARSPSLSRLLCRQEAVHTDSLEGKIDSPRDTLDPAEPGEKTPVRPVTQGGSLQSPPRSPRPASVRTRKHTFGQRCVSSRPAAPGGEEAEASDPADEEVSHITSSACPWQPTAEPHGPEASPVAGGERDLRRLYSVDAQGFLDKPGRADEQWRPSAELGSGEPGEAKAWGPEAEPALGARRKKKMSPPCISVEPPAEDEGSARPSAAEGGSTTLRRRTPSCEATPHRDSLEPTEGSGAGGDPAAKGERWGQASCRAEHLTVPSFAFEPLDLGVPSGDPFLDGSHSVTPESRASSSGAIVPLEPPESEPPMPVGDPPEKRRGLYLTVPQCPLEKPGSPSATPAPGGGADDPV
Chain of Cytochrome P450 2D6 (P10635 whole entry): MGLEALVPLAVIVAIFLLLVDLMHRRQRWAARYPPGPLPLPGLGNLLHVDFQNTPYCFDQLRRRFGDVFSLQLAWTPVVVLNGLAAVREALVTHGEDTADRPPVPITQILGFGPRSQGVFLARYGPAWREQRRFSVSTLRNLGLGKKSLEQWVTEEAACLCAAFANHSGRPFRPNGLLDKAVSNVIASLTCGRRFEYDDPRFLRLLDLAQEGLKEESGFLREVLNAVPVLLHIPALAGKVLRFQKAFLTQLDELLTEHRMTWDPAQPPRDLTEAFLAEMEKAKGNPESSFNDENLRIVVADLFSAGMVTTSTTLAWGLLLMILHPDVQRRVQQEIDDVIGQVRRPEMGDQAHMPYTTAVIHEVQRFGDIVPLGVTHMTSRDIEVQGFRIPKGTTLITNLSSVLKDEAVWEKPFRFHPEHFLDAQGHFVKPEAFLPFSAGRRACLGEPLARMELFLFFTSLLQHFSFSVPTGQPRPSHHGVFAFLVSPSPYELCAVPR
Chain of Intestinal-type alkaline phosphatase (P09923 whole entry): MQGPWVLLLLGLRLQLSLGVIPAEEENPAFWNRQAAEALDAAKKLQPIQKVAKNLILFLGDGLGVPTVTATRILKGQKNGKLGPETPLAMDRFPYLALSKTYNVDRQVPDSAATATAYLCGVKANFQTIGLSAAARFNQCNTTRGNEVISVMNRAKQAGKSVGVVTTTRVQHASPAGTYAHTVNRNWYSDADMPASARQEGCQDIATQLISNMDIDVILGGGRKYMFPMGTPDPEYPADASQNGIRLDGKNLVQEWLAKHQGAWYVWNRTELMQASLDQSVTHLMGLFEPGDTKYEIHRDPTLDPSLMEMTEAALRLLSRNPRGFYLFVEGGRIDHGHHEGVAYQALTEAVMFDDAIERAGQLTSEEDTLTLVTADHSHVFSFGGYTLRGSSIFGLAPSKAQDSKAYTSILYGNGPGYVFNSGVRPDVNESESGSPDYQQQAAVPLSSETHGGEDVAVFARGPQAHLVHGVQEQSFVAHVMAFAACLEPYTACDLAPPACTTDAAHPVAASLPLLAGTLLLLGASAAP

On to `CSc1nc(-c2ccccc2)nc(-c2ccccc2OC(C)=O)n1`, for which the IC50 in data set [1] and in data set [2] was > 10 µM (inactive) each time.
`COc1ccc(C(=O)Nc2cccc3c2C(=O)NC3=O)cc1S(=O)(=O)N1CCOCC1`: the EC50 in [3] is > 100 µM (inactive). In addition, the AC50 result in [4] is “inconclusive”; in data set [5] it was 1 µM (inconclusive); in data set [6] it was “inconclusive”.
On to `Cc1ccc(-c2nnc(C)c3nn(-c4ccc(C)cc4)cc23)cc1`, for which the EC50 in data set [7], in [8] and in data set [13] was > 32 µM (inactive) throughout. For the same compound, the IC50 in data set [9] is 15.4 µM (inactive); in [10] it was 2.59 µM (active); in [11], > 32 µM (inactive); in data set [12], > 18 µM (inactive).
`CC(C)(C)CCN1CCC[C@@H](NC(=O)c2cc(Cl)cc(Cl)c2)C1`: in [14], the EC50 was 10 µM (active).
In the case of `O=C1CCN(C(=O)Nc2cc(Cl)ccc2C(=O)O)CC1`, the IC50 in data set [15] was > 25 µM (inactive).
For `O=C(N/N=C\c1ccc(Cl)s1)C1COc2ccccc2O1` (stereo not drawn), the CC50 in data set [16] is 16.3 µM (active); in [17] it was 19.4 µM (active). Moreover, the IC50 in data set [18] was 5.63 µM (active).
